Tested on: Per2-dLuc U2OS reporter cells
Assay: Per2 assay for evaluating the potency of test compounds (high-throughput circadian assay)
Assay type: cell-based
Settings: Homo sapiens, U2OS, stable U2OS reporter cells harboring Per2-dLuc; luminescence monitored over 4-5 days at 35° C.
Summary of the method: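 Compounds (0.5% DMSO final) were added right after serum-shock synchronization of Per2-dLuc U2OS reporter cells in minimal medium containing 1.0 mM beetle luciferin. Reporter luminescence was followed at 35 °C for 4–5 days to extract rhythm period, amplitude and phase, and EC50 values were obtained from these.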

**Q.** For `CS(=O)(=O)N(CC(O)Cn1c2ccccc2c2ccccc21)C1CC(F)(F)C1` (stereo not shown) [Compound 133, N-(3-(9H-Carbazol-9-yl)-2-hydroxypropyl)-N-(3,3-difluorocyclobutyl)methanesulfonamide], which EC50 is on record?
**A.** The EC50 was 1530 nM.

**Q.** With `O=S(=O)(CCCF)N(Cc1ccco1)CC(O)Cn1c2ccccc2c2ccccc21` (stereo not shown) [Compound 10, N-(3-(9H-Carbazol-9-yl)-2-hydroxypropyl)-3-fluoro-N-(furan-2-ylmethyl)propane-1-sulfonamide] as the compound, how does the EC50 read?
**A.** The EC50 was 1130 nM.

**Q.** For `O=S1(=O)CCCCN1C[C@H](O)Cn1c2ccccc2c2ccccc21` [Compound 41, (R)-N-(3-(9H-Carbazol-9-yl)-2-hydroxypropyl)-1,2-thiazinane 1,1-dioxide], which EC50 is on record?
**A.** The EC50 was 343 nM.

**Q.** How did the EC50 turn out when `CS(=O)(=O)N(CC(O)Cn1c2ccccc2c2ccccc21)CC1CC2CCC1C2` (stereo not shown) [Compound 75, N-(3-(9H-Carbazol-9-yl)-2-hydroxypropyl)-N-(bicyclo[2.2.1]heptan-2-ylmethyl)methanesulfonamide] was run?
**A.** Its EC50 is 842 nM.

**Q.** Which EC50 does the source give for `CS(=O)(=O)N(CC(O)Cn1c2ccccc2c2ccccc21)c1ccccc1I` (stereo not shown) [Compound 26, N-(3-(9H-Carbazol-9-yl)-2-hydroxypropyl)-N-(2-iodophenyl)methanesulfonamide] here?
**A.** Its EC50 is 1300 nM.

**Q.** `CS(=O)(=O)N(CC(O)Cn1c2ccccc2c2ccccc21)C1CCCC1` (stereo not shown) [Compound 58, N-(3-(9H-Carbazol-9-yl)-2-hydroxypropyl)-N-cyclopentylmethanesulfonamide] was tested. Which EC50 did it give?
**A.** Its EC50 is 150 nM.

**Q.** How did the EC50 turn out when `O=S1(=O)CCCCN1C[C@@H](O)Cn1c2ccccc2c2ccccc21` [Compound 38, (S)-N-(3-(9H-Carbazol-9-yl)-2-hydroxypropyl)-1,2-thiazinane 1,1-dioxide] was run?
**A.** Its EC50 is 11 nM.

**Q.** Which EC50 does the source give for `CS(=O)(=O)N(CC(O)Cn1c2ccccc2c2ccccc21)C1CCc2ccccc21` (single isomer, unassigned) [Compound 61, N-(3-(9H-Carbazol-9-yl)-2-hydroxypropyl)-N-(2,3-dihydro-1H-inden-1-yl)methanesulfonamide] here?
**A.** The EC50 was 4470 nM.

**Q.** With `CS(=O)(=O)N(CC(O)Cn1c2ccccc2c2ccccc21)c1ccccc1Cl` (stereo not shown) [Compound 77, N-(3-(9H-Carbazol-9-yl)-2-hydroxypropyl)-N-(2-chlorophenyl)methanesulfonamide] as the compound, how does the EC50 read?
**A.** Its EC50 is 750 nM.

**Q.** How did the EC50 turn out when `CS(=O)(=O)N(Cc1ccco1)CC(O)Cn1c2ccc(F)cc2c2cc(F)ccc21` (stereo not shown) [Compound 88, N-(3-(3,6-Difluoro-9H-carbazol-9-yl)-2-hydroxypropyl)-N-(furan-2-ylmethyl)methanesulfonamide] was run?
**A.** The EC50 was 940 nM.

**Q.** `CC(C)(C(O)CN1CCCS1(=O)=O)n1c2ccccc2c2ccccc21` (stereo not shown) [Compound 114, 2-(3-(9H-Carbazol-9-yl)-2-hydroxy-3-methylbutyl)-isothiazolidine-1,1-dioxide] was tested. Which EC50 did it give?
**A.** The EC50 was 521 nM.

**Q.** With `CS(=O)(=O)N(CC(O)Cn1c2ccccc2c2ccccc21)c1ccc2cn[nH]c2c1` (stereo not shown) [Compound 78, N-(3-(9H-Carbazol-9-yl)-2-hydroxypropyl)-N-(1H-indazol-6-yl)methanesulfonamide] as the compound, how does the EC50 read?
**A.** The EC50 was 6350 nM.

**Q.** With `O=S1(=O)NCCCN1CC(O)Cn1c2ccccc2c2ccccc21` (stereo not shown) [Compound 123, 2-(3-(9H-Carbazol-9-yl)-2-hydroxypropyl)-1,2,6-thiadiazinane-1,1-dioxide] as the compound, how does the EC50 read?
**A.** Its EC50 is 33 nM.

**Q.** How did the EC50 turn out when `O=S1(=O)CCCN1CC(O)Cn1c2cc(F)ccc2c2ccc(F)cc21` (stereo not shown) [Compound 92, N-(3-(2,7-Difluoro-9H-carbazol-9-yl)-2-hydroxypropyl)-isothiazolidine-1,1-dioxide] was run?
**A.** Its EC50 is 40 nM.

**Q.** How did the EC50 turn out when `CS(=O)(=O)N(Cc1ccco1)CC(O)Cn1c2ccccc2c2ccc(F)cc21` (stereo not shown) [Compound 237, N-(3-(2-Fluoro-9H-carbazol-9-yl)-2-hydroxy-propyl)-N-(furan-2-yl-methyl)methane-sulfonamide] was run?
**A.** Its EC50 is 594 nM.

**Q.** `O=S1(=O)CCc2ccccc2N1CC(O)Cn1c2ccccc2c2ccccc21` (stereo not shown) [Compound 37, N-(3-(9H-Carbazol-9-yl)-2-hydroxypropyl)-3,4-dihydro-1H-benzo[c][1,2]thiazine 2,2-dioxide] was tested. Which EC50 did it give?
**A.** Its EC50 is 34 nM.

**Q.** For `CS(=O)(=O)N(CC(O)Cn1c2ccccc2c2ccccc21)C1CC1` (stereo not shown) [Compound 56, N-(3-(9H-Carbazol-9-yl)-2-hydroxypropyl)-N-cyclopropylmethanesulfonamide], which EC50 is on record?
**A.** Its EC50 is 128 nM.

**Q.** `CS(=O)(=O)N(CC(O)Cn1c2cc(F)ccc2c2ccc(F)cc21)C1CC1` (stereo not shown) [Compound 161, N-Cyclopropyl-N-(3-(2,7-difluoro-9H-carbazol-9-yl)-2-hydroxypropyl)methanesulfonamide] was tested. Which EC50 did it give?
**A.** The EC50 was 1140 nM.

**Q.** `O=S1(=O)N(CC(O)Cn2c3ccc(F)cc3c3cc(F)ccc32)CCCN1C1CCCCC1` (stereo not shown) [Compound 222, 2-(3-(3,6-Difluoro-9H-carbazol-9-yl)-2-hydroxypropyl)-6-cyclohexyl-1,2,6-thiadiazinane-1,1-dioxide] was tested. Which EC50 did it give?
**A.** Its EC50 is 7120 nM.

**Q.** For `CC(C)(N(CC(O)Cn1c2ccccc2c2ccccc21)S(C)(=O)=O)C(F)(F)F` (stereo not shown) [Compound 148, N-(3-(9H-Carbazol-9-yl)-2-hydroxypropyl)-N-(1,1,1-trifluoro-2-methylpropan-2-yl)methanesulfonamide], which EC50 is on record?
**A.** Its EC50 is 489 nM.

**Q.** Which EC50 does the source give for `CC1CC(N(CC(C)(O)Cn2c3ccc(F)cc3c3cc(F)ccc32)S(C)(=O)=O)C1` (stereo not shown) [Compound 191, N-(3-(3,6-Difluoro-9H-carbazol-9-yl)-2-hydroxy-2-methylpropyl)-N-(3-methylcyclobutyl)methanesulfonamide] here?
**A.** Its EC50 is 1190 nM.

**Q.** For `O=S1(=O)CCCCN1CC(O)Cn1c2ccc(F)cc2c2c(F)cccc21` (stereo not shown) [Compound 107, N-(3-(3,5-Diflouoro-9H-carbazol-9-yl)-2-hydroxypropyl)-1,2-thiazinane 1,1-dioxide], which EC50 is on record?
**A.** Its EC50 is 240 nM.

**Q.** With `CS(=O)(=O)N(CC(O)Cn1c2ccc(F)cc2c2cc(F)ccc21)c1ccccc1` (stereo not shown) [Compound 199, N-(3-(3,6-Difluoro-9H-carbazol-9-yl)-2-hydroxypropyl)-N-phenylmethanesulfonamide] as the compound, how does the EC50 read?
**A.** Its EC50 is 544 nM.

**Q.** `CC1CCCN(CC(O)Cn2c3ccccc3c3ccccc32)S1(=O)=O` (stereo not shown) [Compound 111, N-(3-(9H-Carbazol-9-yl)-2-hydroxypropyl)-6-methyl-1,2-thiazinane-1,1-dioxide] was tested. Which EC50 did it give?
**A.** The EC50 was 84 nM.

**Q.** How did the EC50 turn out when `O=S1(=O)c2ccccc2CCN1CC(O)Cn1c2ccccc2c2ccccc21` (stereo not shown) [Compound 43, N-(3-(9H-Carbazol-9-yl)-2-hydroxypropyl)-3,4-dihydro-2H-benzo[e][1,2]thiazine 1,1-dioxide] was run?
**A.** The EC50 was 3000 nM.

**Q.** Which EC50 does the source give for `O=S1(=O)N(CC(O)Cn2c3ccccc3c3ccccc32)CCCC1(F)F` (stereo not shown) [Compound 122, 2-(3-(9H-Carbazol-9-yl)-2-hydroxypropyl)-6,6-difluoro-1,2-thiazinane-1,1-dioxide] here?
**A.** The EC50 was 329 nM.

**Q.** With `O=S(=O)(Cc1ccccc1)N(Cc1ccco1)CC(O)Cn1c2ccccc2c2ccccc21` (stereo not shown) [Compound 14, N-(3-(9H-Carbazol-9-yl)-2-hydroxypropyl)-N-(furan-2-ylmethyl)-1-phenylmethanesulfonamide] as the compound, how does the EC50 read?
**A.** The EC50 was 652 nM.

**Q.** How did the EC50 turn out when `O=S1(=O)C(F)CCCN1CC(O)Cn1c2ccccc2c2ccccc21` (stereo not shown) [Compound 121, 2-(3-(9H-Carbazol-9-yl)-2-hydroxypropyl)-6-fluoro-1,2-thiazinane-1,1-dioxide] was run?
**A.** The EC50 was 51 nM.

**Q.** Which EC50 does the source give for `O=S1(=O)NCCN1CC(O)Cn1c2ccc(F)cc2c2cc(F)ccc21` (stereo not shown) [Compound 175] here?
**A.** The EC50 was 35 nM.

**Q.** Which EC50 does the source give for `CC1CCN(CC(O)Cn2c3ccc(F)cc3c3cc(F)ccc32)S1(=O)=O` (stereo not shown) [Compound 177] here?
**A.** The EC50 was 202 nM.

**Q.** How did the EC50 turn out when `CS(=O)(=O)N(CC(O)Cn1c2ccccc2c2ccccc21)c1cccc(Cl)c1` (stereo not shown) [Compound 64, N-(3-(9H-Carbazol-9-yl)-2-hydroxypropyl)-N-(3-chlorophenyl)methanesulfonamide] was run?
**A.** Its EC50 is 1000 nM.

**Q.** For `CS(=O)(=O)N(CC(O)Cn1c2ccccc2c2ccccc21)c1ccc2sccc2c1` (stereo not shown) [Compound 65, N-(3-(9H-Carbazol-9-yl)-2-hydroxypropyl)-N-(benzo[b]thiophen-5-yl)methanesulfonamide], which EC50 is on record?
**A.** The EC50 was 9500 nM.

**Q.** How did the EC50 turn out when `CC(C)N(CC(O)Cn1c2ccc(F)cc2c2ccc(F)cc21)S(C)(=O)=O` (stereo not shown) [Compound 165, N-(3-(2,6-Difluoro-9H-carbazol-9-yl)-2-hydroxypropyl)-N-isopropylmethanesulfonamide] was run?
**A.** Its EC50 is 95 nM.

**Q.** For `CC(=O)N1CCC(N(CC(O)Cn2c3ccccc3c3ccccc32)S(C)(=O)=O)CC1` (stereo not shown) [Compound 59, N-(3-(9H-Carbazol-9-yl)-2-hydroxypropyl)-N-(1-acetylpiperidin-4-yl)methanesulfonamide], which EC50 is on record?
**A.** Its EC50 is 9580 nM.

**Q.** For `CS(=O)(=O)N(CC(O)Cn1c2ccc(F)cc2c2cc(F)ccc21)c1ccc(-n2cccn2)cc1` (stereo not shown) [Compound 213, N-(4-(1H-Pyrazol-1-yl)phenyl)-N-(3-(3,6-difluoro-9H-carbazol-9-yl)-2-hydroxypropyl)methanesulfonamide], which EC50 is on record?
**A.** Its EC50 is 2950 nM.

**Q.** For `CC(O)(CN1CCC(F)S1(=O)=O)Cn1c2ccc(F)cc2c2cc(F)ccc21` (stereo not shown) [Compound 184, 2-(3-(3,6-Difluoro-9H-carbazol-9-yl)-2-hydroxy-2-methylpropyl)-5-fluoroisothiazolidine-1,1-dioxide], which EC50 is on record?
**A.** Its EC50 is 155 nM.

**Q.** How did the EC50 turn out when `O=S1(=O)N(CC(O)Cn2c3ccc(F)cc3c3cc(F)ccc32)CCCN1C1CCCC1` (stereo not shown) [Compound 220, 2-(3-(3,6-Difluoro-9H-carbazol-9-yl)-2-hydroxypropyl)-6-cyclopentyl-1,2,6-thiadiazinane-1,1-dioxide] was run?
**A.** Its EC50 is 1660 nM.

**Q.** With `COCCN(CC(O)Cn1c2ccc(F)cc2c2cc(F)ccc21)S(C)(=O)=O` (stereo not shown) [Compound 90, N-(3-(3,6-Difluoro-9H-carbazol-9-yl)-2-hydroxypropyl)-N-(2-methoxyethyl)methanesulfonamide] as the compound, how does the EC50 read?
**A.** Its EC50 is 406 nM.

**Q.** With `CS(=O)(=O)N(CC(O)Cn1c2ccccc2c2ccccc21)c1ccc2[nH]ccc2c1` (stereo not shown) [Compound 76, N-(3-(9H-Carbazol-9-yl)-2-hydroxypropyl)-N-(1H-indol-5-yl)methanesulfonamide] as the compound, how does the EC50 read?
**A.** The EC50 was 2180 nM.

Same assay, conditions: stable U2OS reporter cells harboring Per2-dLuc; luminescence monitored over 4-5 days at 35° C.

**Q.** `CC1CCCC1N(CC(O)Cn1c2ccc(F)cc2c2cc(F)ccc21)S(C)(=O)=O` (single isomer, unassigned) [Compound 193C, N-(3-(3,6-Difluoro-9H-carbazol-9-yl)-2-hydroxypropyl)-N-(2-methylcyclopentyl)methanesulfonamide] was tested. Which EC50 did it give?
**A.** Its EC50 is 4470 nM.
